From patent publication US9730447B2, “Fungicidal amides” (E I DU PONT DE NEMOURS AND COMPANY, priority 2013, dated 2017)

Legend:
Assay type in all cases: in vivo
[1] = system: Puccinia recondite f. sp. tritici; assay: Test D: preventive spray on wheat seedlings, Puccinia recondite f. sp. tritici (wheat leaf rust), visual disease rating; conditions: 100 = 100% disease control, 0 = no control, unmarked values
Procedure, shortened: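 Wheat seedlings sprayed to run-off with 40 ppm (160 g ai/ha) or 10 ppm (40 g ai/ha) suspension in acetone/water with 250 ppm surfactant, inoculated next day with leaf rust spores. After 24 h saturated at 20 °C then 6 days at 20 °C, visual rating of disease control (0–100) relative to controls.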

[2] = system: Stagonospora nodorum (also known as Septoria nodorum); assay: Test B: preventive spray on wheat seedlings, Stagonospora nodorum (wheat glume blotch), visual disease rating; conditions: 100 = 100% disease control, 0 = no control, unmarked values
Procedure, shortened: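 Compounds in acetone/water (50/50) with 250 ppm Trem 014 surfactant were sprayed to run-off at 40 ppm (160 g ai/ha) or 10 ppm (40 g ai/ha). Seedlings were inoculated with S. nodorum spores the next day, then held 48 h saturated at 20 °C and 6 days in a growth chamber at 20 °C. Visual rating as % disease control vs untreated.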

[3] = system: Erysiphe graminis f. sp. tritici; assay: Test E: preventive spray on wheat seedlings, Erysiphe graminis f. sp. tritici (wheat powdery mildew), visual disease rating; conditions: 100 = 100% disease control, 0 = no control, unmarked values
Procedure, shortened: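 Wheat seedlings were sprayed to run-off with 40 or 10 ppm suspension (160 or 40 g ai/ha) and dusted with spores the next day. They were then kept 8 days at 20 °C. Disease was rated visually as % control relative to untreated controls (0–100).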

Septoria tritici = assay: Test C: preventive spray on wheat seedlings, Septoria tritici (wheat leaf blotch), visual disease rating; conditions: 100 = 100% disease control, 0 = no control, unmarked values
Procedure, shortened: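 Wheat seedlings sprayed to run-off at 40 ppm or 10 ppm (160 or 40 g ai/ha) in acetone/water with surfactant, inoculated with Septoria tritici spores next day. Held 48 h saturated at 24 °C, then 21 days at 20 °C. Visual rating scored as % disease control relative to controls.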

Botrytis cinerea = assay: Test A: preventive spray on tomato seedlings, Botrytis cinerea (gray mold), visual disease rating; conditions: 100 = 100% disease control, 0 = no control relative to controls, unmarked values
Procedure, shortened: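 Tomato seedlings sprayed to run-off with 40 ppm or 10 ppm suspensions (160 or 40 g ai/ha) in acetone/water with 250 ppm surfactant. Inoculated with B. cinerea spores next day, held saturated at 20 °C for 48 h, then 27 °C for 2 days. Visual rating, 0–100% disease control relative to controls.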

Row | Compound | Test D disease control rating [1] [%] | Test B disease control rating [2] [%] | Test E disease control rating [3] [%] | Test C disease control rating (Septoria tritici) [%] | Test A disease control rating (Botrytis cinerea) [%]
1 | Cn1cc(C(=O)Nc2ccccc2-c2cnc(-n3cc(Cl)cn3)c(Cl)c2)c(C(F)F)n1 [compound 62] | 100 | 0 | 98 | 100 | 84
2 | O=C(Nc1ccccc1-c1ccc(-n2ccc(Br)n2)nc1)c1ncccc1C(F)(F)F [compound 13] | 100 | 98 | 99 | 100 | 98
3 | Cc1cnn(-c2ccc(-c3ccccc3NC(=O)c3ccccc3C(F)(F)F)cn2)c1 [compound 44] | 99 | 0 | 0 | 62 | 40
4 | O=C(Nc1ccccc1-c1ccc(-n2cc(Cl)cn2)nc1)c1ncccc1C(F)(F)F [compound 32] | 100 | 100 | 99 | 100 | 99
5 | Cn1cc(C(=O)Nc2ccccc2-c2ccc(-n3ccc(-c4ccc(F)cc4)n3)nc2)c(C(F)F)n1 [compound 99] | 100 | 0 | 91 | 90 | 89
6 | O=C(Nc1ccccc1-c1cnc(-n2ccc(C(F)(F)F)n2)c(Cl)c1)c1ccccc1C(F)(F)F [compound 33] | 100 | 60 | 99 | 100 | 15
7 | Cn1cc(C(=O)Nc2ccccc2-c2ccc(-n3ccc(-c4ccccc4)n3)nc2)c(C(F)F)n1 [compound 41] | 100 | 40 | 84 | 100 | 99
8 | O=C(Nc1ccccc1-c1cnc(-n2ccc(-c3ccccc3)n2)c(F)c1)c1ccccc1C(F)(F)F [compound 80] | 88 | 0 | 0 | 100 | 0
9 | 3-(trifluoromethyl)-N-[2-[6-[3-(trifluoromethyl)-1H-pyrazol-1-yl]-3-pyridazinyl]phenyl]-2-pyridinecarboxamide [Compound 59] | 100 | 100 | 99 | 100 | 100
10 | Cn1cc(C(=O)Nc2ccccc2-c2ccc(-n3cc(-c4cccc(F)c4)cn3)nc2)c(C(F)F)n1 [compound 5] | 100 | 100 | 99 | 100 | 100
11 | Cn1cc(C(=O)Nc2ccccc2-c2cnc(-n3cc(Cl)cn3)c(F)c2)c(C(F)F)n1 [compound 74] | 100 | 0 | 100 | 100 | 96
12 | O=C(Nc1ccccc1-c1cnc(-n2ccc(Cl)n2)c(F)c1)c1ncccc1C(F)(F)F [compound 69] | 100 | 100 | 100 | 100 | 99
